According to patent US10316028B2, “Orexin receptor antagonists” (Heptares Therapeutics Limited, priority 2012, dated 2019):

Molecular target: T1, human Orexin-2 receptor (Homo sapiens, UniProt O43614)
T1 construct: expressed in transfected cells; host or cells: HEK293 cells (transient transfection, Genejuice); membranes
T1 sequence (O43614 1-444): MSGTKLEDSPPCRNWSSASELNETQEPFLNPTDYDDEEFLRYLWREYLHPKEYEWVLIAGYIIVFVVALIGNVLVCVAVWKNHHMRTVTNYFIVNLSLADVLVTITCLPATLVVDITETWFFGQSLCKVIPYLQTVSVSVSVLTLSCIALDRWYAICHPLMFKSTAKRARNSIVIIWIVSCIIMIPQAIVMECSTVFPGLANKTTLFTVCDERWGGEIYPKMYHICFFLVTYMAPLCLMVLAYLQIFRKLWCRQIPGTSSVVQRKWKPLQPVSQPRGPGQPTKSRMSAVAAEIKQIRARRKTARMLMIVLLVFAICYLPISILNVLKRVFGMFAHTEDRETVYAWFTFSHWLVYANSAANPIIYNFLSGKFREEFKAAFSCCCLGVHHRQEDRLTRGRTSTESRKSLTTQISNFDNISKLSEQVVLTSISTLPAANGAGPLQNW
Test: 3H-EMPA radioligand binding assay
Settings: 3H-EMPA displacement, membranes of HEK293 cells transfected with human Orexin-2 receptor; KI by Cheng-Prussoff; read-out: OX2 pKi ave (converted)
Procedure, shortened: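 Membranes from HEK293 cells transiently transfected with human orexin-2 receptor cDNA, assayed with [3H]EMPA. Bound ligand collected on PEI-treated GF/B filters and counted by scintillation; IC50 from inhibition curves, Ki by Cheng-Prusoff.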

Ki [nM]	SMILES
5.01	O=C1N(Cc2c(F)cc(F)cc2F)c2ccccc2S(=O)(=O)N1c1ccc2ncsc2c1 [Example 124, 2-(1,3-Benzothiazol-6-yl)-4-(2,4,6-trifluorobenzyl)-2H-1,2,4-benzothiadiazin-3(4H)-one 1,1-dioxide]
38	Cn1nc(CN2C(=O)N(Cc3c(F)cccc3F)c3ccccc3S2(=O)=O)c2ccccc21 [Example 125, 4-(2,6-Difluorobenzyl)-2-[(1-methyl-1H-indazol-3-yl)methyl]-2H-1,2,4-benzothiadiazin-3(4H)-one 1,1-dioxide]
35.5	O=C1N(Cc2c(F)cccc2F)c2ccccc2S(=O)(=O)N1Cc1cc(=O)[nH]c2ccccc12 [Example 126, 4-(2,6-Difluorobenzyl)-2-[(2-oxo-1,2-dihydroquinolin-4-yl)methyl]-2H-1,2,4-benzothiadiazin-3(4H)-one 1,1-dioxide]
58.9	Cc1cc(CN2C(=O)N(Cc3c(F)cccc3Cl)c3ccccc3S2(=O)=O)n(C)n1 [Example 127, 4-(2-Chloro-6-fluorobenzyl)-2-[(1,3-dimethyl-1H-pyrazol-5-yl)methyl]-2H-1,2,4-benzothiadiazin-3(4H)-one 1,1-dioxide]
79.4	O=C1N(Cc2c(F)cccc2Cl)c2ccccc2S(=O)(=O)N1Cc1ccccn1 [Example 128, 4-(2-Chloro-6-fluorobenzyl)-2-(pyridin-2-ylmethyl)-2H-1,2,4-benzothiadiazin-3(4H)-one 1,1-dioxide]
115	Cc1cc(CN2C(=O)N(Cc3c(F)cccc3Cl)c3ccccc3S2(=O)=O)no1 [Example 129, 4-(2-Chloro-6-fluorobenzyl)-2-[(5-methyl-1,2-oxazol-3-yl)methyl]-2H-1,2,4-benzothiadiazin-3(4H)-one 1,1-dioxide]
87.1	COc1ccc(N2C(=O)N(Cc3ccccc3C)c3c(F)cccc3S2(=O)=O)cn1 [Example 130, 5-Fluoro-2-(6-methoxypyridin-3-yl)-4-(2-methylbenzyl)-2H-1,2,4-benzothiadiazin-3(4H)-one 1,1-dioxide]
295	Cn1ccnc1CN1C(=O)N(Cc2c(F)cccc2F)c2ccccc2S1(=O)=O [Example 131, 4-(2,6-Difluorobenzyl)-2-[(1-methyl-1H-imidazol-2-yl)methyl]-2H-1,2,4-benzothiadiazin-3(4H)-one 1,1-dioxide]
302	Cn1cc(N2C(=O)N(Cc3c(F)cccc3Cl)c3ccccc3S2(=O)=O)ccc1=O [Example 132, 4-(2-Chloro-6-fluorobenzyl)-2-(1-methyl-6-oxo-1,6-dihydropyridin-3-yl)-2H-1,2,4-benzothiadiazin-3(4H)-one 1,1-dioxide]
661	CCN1CCCC(N2C(=O)N(Cc3c(F)cccc3F)c3ccccc3S2(=O)=O)C1 (centres unmarked) [Example 133, 4-(2,6-Difluorobenzyl)-2-(1-ethylpiperidin-3-yl)-2H-1,2,4-benzothiadiazin-3(4H)-one 1,1-dioxide]
39.8	Cc1cc(CN2C(=O)N(Cc3ccc(Cl)cc3F)c3ccccc3S2(=O)=O)n(C)n1 [Example 134, 4-(4-Chloro-2-fluorobenzyl)-2-[(1,3-dimethyl-1H-pyrazol-5-yl)methyl]-2H-1,2,4-benzothiadiazin-3(4H)-one 1,1-dioxide]
13.8	COc1ccc(N2C(=O)N(Cc3c(F)cc(C)cc3Cl)c3ccccc3S2(=O)=O)cn1 [Example 135, 4-(2-Chloro-6-fluoro-4-methylbenzyl)-2-(6-methoxypyridin-3-yl)-2H-1,2,4-benzothiadiazin-3(4H)-one 1,1-dioxide]
10.7	COc1cc(F)c(CN2C(=O)N(c3ccc(OC)nc3)S(=O)(=O)c3ccccc32)c(F)c1 [Example 136, 4-(2,6-Difluoro-4-methoxybenzyl)-2-(6-methoxypyridin-3-yl)-2H-1,2,4-benzothiadiazin-3(4H)-one 1,1-dioxide]
38	COc1ncc(N2C(=O)N(Cc3c(F)cccc3Cl)c3ccccc3S2(=O)=O)cn1 [Example 137, 4-(2-Chloro-6-fluorobenzyl)-2-(2-methoxypyrimidin-5-yl)-2H-1,2,4-benzothiadiazin-3(4H)-one 1,1-dioxide]
1.45	COc1cc(F)c(CN2C(=O)N(c3cccc(OC)n3)S(=O)(=O)c3ccccc32)c(F)c1 [Example 138, 4-(2,6-Difluoro-4-methoxybenzyl)-2-(6-methoxypyridin-2-yl)-2H-1,2,4-benzothiadiazin-3(4H)-one 1,1-dioxide]
13.8	COc1cccc(N2C(=O)N(Cc3c(F)cc(F)cc3Cl)c3ccccc3S2(=O)=O)n1 [Example 139, 4-(2-Chloro-4,6-difluorobenzyl)-2-(6-methoxypyridin-2-yl)-2H-1,2,4-benzothiadiazin-3(4H)-one 1,1-dioxide]

Ki [nM]	SMILES
3.31	COc1cc(F)c(CN2C(=O)N(c3ccnc(OC)c3)S(=O)(=O)c3ccccc32)c(F)c1 [Example 140, 4-(2,6-Difluoro-4-methoxybenzyl)-2-(2-methoxypyridin-4-yl)-2H-1,2,4-benzothiadiazin-3(4H)-one 1,1-dioxide]
6.92	COc1cc(N2C(=O)N(Cc3c(F)cc(F)cc3Cl)c3ccccc3S2(=O)=O)ccn1 [Example 141, 4-(2-Chloro-4,6-difluorobenzyl)-2-(2-methoxypyridin-4-yl)-2H-1,2,4-benzothiadiazin-3(4H)-one 1,1-dioxide]
29.5	Cc1ccc(N2C(=O)N(Cc3c(F)cccc3Cl)c3ccccc3S2(=O)=O)cn1 [Example 142, 4-(2-Chloro-6-fluorobenzyl)-2-(6-methylpyridin-3-yl)-2H-1,2,4-benzothiadiazin-3(4H)-one 1,1-dioxide]
15.8	COc1cc(N2C(=O)N(Cc3c(F)cccc3Cl)c3ccccc3S2(=O)=O)ccn1 [Example 143, 4-(2-Chloro-6-fluorobenzyl)-2-(2-methoxypyridin-4-yl)-2H-1,2,4-benzothiadiazin-3(4H)-one 1,1-dioxide]
50.1	COc1cccc(N2C(=O)N(Cc3c(F)cc(F)cc3F)c3ccccc3S2(=O)=O)n1 [Example 144, 2-(6-Methoxypyridin-2-yl)-4-(2,4,6-trifluorobenzyl)-2H-1,2,4-benzothiadiazin-3(4H)-one 1,1-dioxide]
0.363	COc1cc(F)c(CN2C(=O)N(c3cnc(OC)c(OC)c3)S(=O)(=O)c3ccccc32)c(F)c1 [Example 146, 4-(2,6-difluoro-4-methoxybenzyl)-2-(5,6-Dimethoxypyridin-3-yl)-2H-1,2,4-benzothiadiazin-3(4H)-one 1,1-dioxide]
1.58	COc1ccc(N2C(=O)N(Cc3c(F)cc(F)cc3F)c3ccccc3S2(=O)=O)nc1OC [Example 147, 2-(5,6-Dimethoxypyridin-2-yl)-4-(2,4,6-trifluorobenzyl)-2H-1,2,4-benzothiadiazin-3(4H)-one 1,1-dioxide]
1.38	COc1cc(N2C(=O)N(Cc3c(F)cc(F)cc3F)c3ccccc3S2(=O)=O)cc(OC)n1 [Example 148, 2-(2,6-Dimethoxypyridin-4-yl)-4-(2,4,6-trifluorobenzyl)-2H-1,2,4-benzothiadiazin-3(4H)-one 1,1-dioxide]
0.138	COc1cc(F)c(CN2C(=O)N(c3cc(OC)nc(OC)c3)S(=O)(=O)c3ccccc32)c(F)c1 [Example 149, 4-(2,6-Difluoro-4-methoxybenzyl)-2-(2,6-dimethoxypyridin-4-yl)-2H-1,2,4-benzothiadiazin-3(4H)-one 1,1-dioxide]
17.4	CCn1cc(N2C(=O)N(Cc3c(F)cccc3Cl)c3ccccc3S2(=O)=O)cn1 [Example 150, 4-(2-Chloro-6-fluorobenzyl)-2-(1-ethyl-1H-pyrazol-4-yl)-2H-1,2,4-benzothiadiazin-3(4H)-one 1,1-dioxide]
2	CSc1cncc(N2C(=O)N(Cc3c(F)cccc3Cl)c3ccccc3S2(=O)=O)c1 [Example 151, 4-(2-Chloro-6-fluorobenzyl)-2-[5-(methylsulfanyl)pyridin-3-yl]-2H-1,2,4-benzothiadiazin-3(4H)-one 1,1-dioxide]
5.89	CSc1cncc(N2C(=O)N(Cc3c(F)cc(F)cc3F)c3ccccc3S2(=O)=O)c1 [Example 152, 2-[5-(Methylsulfanyl)pyridin-3-yl]-4-(2,4,6-trifluorobenzyl)-2H-1,2,4-benzothiadiazin-3(4H)-one 1,1-dioxide]
0.224	COc1cc(F)c(CN2C(=O)N(c3ccc(OC)c(OC)n3)S(=O)(=O)c3ccccc32)c(F)c1 [Example 153, 4-(2,6-Difluoro-4-methoxybenzyl)-2-(5,6-dimethoxypyridin-2-yl)-2H-1,2,4-benzothiadiazin-3(4H)-one 1,1-dioxide]
3.02	COc1cc(F)c(CN2C(=O)N(c3ccc(OC)nc3)S(=O)(=O)c3ccccc32)c(Cl)c1 [Example 154, 4-(2-Chloro-6-fluoro-4-methoxybenzyl)-2-(6-methoxypyridin-3-yl)-2H-1,2,4-benzothiadiazin-3(4H)-one 1,1-dioxide]
1.74	COc1cc(N2C(=O)N(Cc3c(F)cc(F)cc3Cl)c3ccccc3S2(=O)=O)cnc1OC [Example 155, 4-(2-Chloro-4,6-difluorobenzyl)-2-(5,6-dimethoxypyridin-3-yl)-2H-1,2,4-benzothiadiazin-3(4H)-one 1,1-dioxide]
11.2	O=C1N(Cc2c(F)cc(F)cc2F)c2ccccc2S(=O)(=O)N1Cc1cc(=O)[nH]c2ccccc12 [Example 156, 4-(2,4,6-Trifluorobenzyl)-2-[(2-oxo-1,2-dihydroquinolin-4-yl)methyl]-2H-1,2,4-benzothiadiazin-3(4H)-one 1,1-dioxide]
